Measured values published in publication PMC6017357, “In Vitro Inhibitory Effects of Synthetic Cannabinoid EAM-2201 on Cytochrome P450 and UDP-Glucuronosyltransferase Enzyme Activities in Human Liver Microsomes” (Molecules : A Journal of Synthetic Chemistry and Natural …, 2018).

Legend:
[1] = molecular target: T1, UGT1A4 (Homo sapiens, UniProt P22310); test: UGT1A4-catalyzed trifluoperazine N-glucuronidation in human liver microsomes; assay type: in vitro ADME; conditions: at 50 µM
T1 construct: ultrapooled human liver microsomes (0.2 mg/mL), 5 mM UDPGA; from tissue; host or cells: ultrapooled human liver microsomes
T1 sequence (P22310 29-534): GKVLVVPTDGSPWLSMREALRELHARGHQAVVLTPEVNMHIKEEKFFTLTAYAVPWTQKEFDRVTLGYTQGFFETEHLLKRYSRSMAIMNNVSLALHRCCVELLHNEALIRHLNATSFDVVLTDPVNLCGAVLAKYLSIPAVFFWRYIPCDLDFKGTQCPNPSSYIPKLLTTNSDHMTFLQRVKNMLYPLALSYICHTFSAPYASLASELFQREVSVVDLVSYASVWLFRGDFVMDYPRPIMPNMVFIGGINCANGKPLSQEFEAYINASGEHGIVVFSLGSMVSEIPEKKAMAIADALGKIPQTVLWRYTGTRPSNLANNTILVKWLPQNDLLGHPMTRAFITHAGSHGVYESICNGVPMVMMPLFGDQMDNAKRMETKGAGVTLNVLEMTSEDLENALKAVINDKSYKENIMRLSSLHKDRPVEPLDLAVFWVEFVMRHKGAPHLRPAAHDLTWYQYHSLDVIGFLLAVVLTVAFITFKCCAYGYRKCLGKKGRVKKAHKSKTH
Description: (§1) The inhibitory effects of EAM-2201 on UGT1A1, UGT1A3, UGT1A4, UGT1A6, UGT1A9 and UGT2B7 were evaluated using LC-MS/MS and the cocktail of UGT substrates as previously described. Each incubation mixture was prepared in a final volume of 100 µL as follows: ultrapooled human liver microsomes (0.2 mg/mL), 5 mM UDPGA, 10 mM magnesium chloride, alamethicin (25 µg/mL), 50 mM Tris buffer (pH 7.4), various concentrations of EAM-2201 in DMSO (final concentrations of 1–50 µM, 0.5% DMSO) and the UGT enzyme-specific substrates of two cocktail sets (set A: 0.5 µM SN-38, 2 µM chenodeoxycholic acid and 0.5 µM trifluoperazine; set B: 1 µM N-acetylserotonin, 0.2 µM mycophenolic acid and 1 µM naloxone, acetonitrile content, 0.5%). […] Supernatant from sets A and B (50 µL of each) was mixed and aliquots (5 µL) were analyzed by LC-MS/MS. […]
(§2) The metabolites formed from the six UGT cocktail substrates were simultaneously measured using LC-MS/MS [41]. […] Each metabolite was quantified via SRM in the negative ion mode: chenodeoxycholic acid 24-acyl-β-glucuronide, 567.2 > 391.0; mycophenolic acid glucuronide, 495.2 > 318.9; and propofol glucuronide (IS), 353.3 > 177.1; and in the positive ion mode: SN-38 glucuronide, 569.0 > 393.0; trifluoperazine glucuronide, 584.2 > 408.1; N-acetylserotonin-β-D-glucuronide, 395.2 > 219.0; naloxone 3-β-D-glucuronide, 504.0 > 310.0; and meloxicam (IS), 352.0 > 115.1. […]

[2] = molecular target: T2, UGT1A6 (Homo sapiens, UniProt P19224); test: UGT1A6-catalyzed N-acetylserotonin glucuronidation in human liver microsomes; assay type: in vitro ADME; conditions: at 50 µM
T2 construct: ultrapooled human liver microsomes (0.2 mg/mL), 5 mM UDPGA; from tissue; host or cells: ultrapooled human liver microsomes
T2 sequence (P19224 27-532): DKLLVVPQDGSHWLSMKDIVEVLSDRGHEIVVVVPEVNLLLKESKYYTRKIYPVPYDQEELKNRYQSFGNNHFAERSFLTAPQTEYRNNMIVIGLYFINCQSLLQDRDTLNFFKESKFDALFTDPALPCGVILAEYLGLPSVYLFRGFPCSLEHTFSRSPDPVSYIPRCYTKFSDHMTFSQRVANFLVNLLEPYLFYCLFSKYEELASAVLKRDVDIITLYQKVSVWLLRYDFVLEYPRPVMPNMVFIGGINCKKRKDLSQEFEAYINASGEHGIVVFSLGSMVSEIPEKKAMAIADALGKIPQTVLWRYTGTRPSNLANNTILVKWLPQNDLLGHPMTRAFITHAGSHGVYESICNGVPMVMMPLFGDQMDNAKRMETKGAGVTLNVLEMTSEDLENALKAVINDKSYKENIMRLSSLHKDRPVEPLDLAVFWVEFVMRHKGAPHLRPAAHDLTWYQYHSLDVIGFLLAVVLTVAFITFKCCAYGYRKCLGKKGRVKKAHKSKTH
Description: as §1, §2

CCc1ccc(C(=O)c2cn(CCCCCF)c3ccccc23)c2ccccc12 [EAM-2201, (4-ethyl-1-naphthalenyl)[1-(5-fluoropentyl)-1H-indol-3-yl]-methanone]
inhibition of UGT1A4-catalyzed trifluoperazine N-glucuronidation [1]: negligibly inhibited
inhibition of UGT1A6-catalyzed N-acetylserotonin glucuronidation [2]: negligibly inhibited
